Experimental data reported in patent publication US20260315604A1, “OTUB1 Small-Molecule Binders and OTUB1-recruiting Deubiquitinase-targeting Chimeras (DUBTACs)” (ICAHN SCHOOL OF MEDICINE AT MOUNT SINAI, priority 2023, published 2026).

Experiments:
OTUB1 [1] = settings: background statement; cited from earlier work
Human OTUB1 wild-type = target: T1, Human OTUB1 wild-type (Homo sapiens, UniProt Q96FW1); experiment: Covalent modification of OTUB1 (adduct formation), mass spectrometry-based assay (OTUB1 covalent binders; selected CFTR or cGAS based bivalent compounds); format: binding; settings: covalent adduct formation with OTUB1 protein
T1 construct: His tag (N); made in house; host or cells: E. coli BL21-CodonPlus (DE3)-RIPIL
T1 sequence (Q96FW1 whole entry): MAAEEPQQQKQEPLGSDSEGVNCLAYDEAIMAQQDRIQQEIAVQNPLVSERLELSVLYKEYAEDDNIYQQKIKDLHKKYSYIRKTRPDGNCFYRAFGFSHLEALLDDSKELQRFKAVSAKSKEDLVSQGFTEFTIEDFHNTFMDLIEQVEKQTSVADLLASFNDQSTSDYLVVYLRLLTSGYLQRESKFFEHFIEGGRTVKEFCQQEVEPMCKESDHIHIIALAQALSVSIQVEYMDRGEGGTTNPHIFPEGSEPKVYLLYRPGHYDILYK
Summary of the method: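 His-tagged human OTUB1 (10 μM), E. coli-expressed, incubated with compound (2500 μM) in 50 mM Tris-HCl pH 7.5, 150 mM NaCl, 0.5 mM TCEP for 1 h at room temperature. Adduct detected by intact-protein LC/ESI-TOF mass spectrometry after buffer exchange; duplicates.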

OTUB1 [2] = settings: background statement; cited from earlier work; remark: listed apart in the source
cGAS and OTUB1 = target: T2, cGAS and OTUB1 (Homo sapiens, UniProt Q8N884+Q96FW1); experiment: cGAS co-elution with OTUB1; format: binding; settings: in the presence of compound; FIG. 6F
T2 construct: other panels use HeLa cells; recombinant His-OTUB1 from E. coli described
T2 sequence (Q8N884 whole entry): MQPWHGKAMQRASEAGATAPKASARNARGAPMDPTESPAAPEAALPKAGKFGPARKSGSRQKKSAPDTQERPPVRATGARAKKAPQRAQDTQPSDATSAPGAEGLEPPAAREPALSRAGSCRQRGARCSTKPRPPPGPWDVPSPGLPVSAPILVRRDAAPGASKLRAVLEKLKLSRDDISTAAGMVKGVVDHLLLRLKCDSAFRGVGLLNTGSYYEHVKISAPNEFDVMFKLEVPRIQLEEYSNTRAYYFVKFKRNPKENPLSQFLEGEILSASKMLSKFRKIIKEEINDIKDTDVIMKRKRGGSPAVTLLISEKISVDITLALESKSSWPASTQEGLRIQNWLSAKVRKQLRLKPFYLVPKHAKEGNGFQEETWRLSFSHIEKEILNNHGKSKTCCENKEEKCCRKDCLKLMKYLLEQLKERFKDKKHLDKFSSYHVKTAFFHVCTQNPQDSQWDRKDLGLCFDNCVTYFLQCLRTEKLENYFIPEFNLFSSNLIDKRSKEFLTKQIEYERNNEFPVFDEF
T2 sequence (Q96FW1 whole entry): as the sequence (Q96FW1 whole entry) above

% of OTUB1 modified (Human OTUB1 wild-type) [%] | Structure (SMILES) | also measured
 | Cc1ccc(S(=O)(=O)Nc2cc(C(F)(F)F)ccc2C(=O)Nc2nc(-c3ccccc3)cs2)cc1 [ML364] | inhibition of the enzymatic activity of OTUB1 (OTUB1 [1]): inhibit the enzymatic activity of OTUB1
40 | C=CC(=O)N1CCN(c2ccc(C)o2)C(=O)C1 [EN523, reference compound] | binding affinity to OTUB1 (OTUB1 [2]): low binding affinity to OTUB1
 | CN(C)C/C=C/C(=O)N1CCN(c2ccc(CCNC(=O)CCCCCCCCCC(=O)NCCn3ccc(-c4cc(Cl)c(Cl)c5[nH]c6c(c45)CN(C(=O)CO)CC6)n3)s2)C(=O)C1 [mS8588, (E)-N1-(2-(3-(6,7-dichloro-2-(2-hydroxyacetyl)-2,3,4,5-tetrahydro-1H-pyrido[4,3-b]indol-9-yl)-1H-pyrazol-1-yl)ethyl)-N11-(2-(5-(4-(4-(dimethylamino)but-2-enoyl)-2-oxopiperazin-1-yl)thiophen-2-yl)ethyl)undecanediamide] | co-elution of cGAS with OTUB1 (cGAS and OTUB1): cGAS co-elutes with OTUB1
 | CN(C)C/C=C/C(=O)N1CCN(c2ccc(CCC(=O)NCCCCCCCCCNC(=O)Cn3ccc(-c4cc(Cl)c(Cl)c5[nH]c6c(c45)CN(C(=O)CO)CC6)n3)s2)C(=O)C1 [MS7829] | co-elution of cGAS with OTUB1 (cGAS and OTUB1): cGAS co-elutes with OTUB1
70 | Cc1ccc(N2CCN(C(=O)/C=C/CN3CCCC3)CC2=O)s1 [XS165-154, (E)-1-(5-methylthiophen-2-yl)-4-(4-(pyrrolidin-1-yl)but-2-enoyl)piperazin-2-one] | 
100 | Cc1ccc(NC(=O)C2CN(C(=O)CCl)C2)s1 [XS175-126, 1-(2-chloroacetyl)-N-(5-methylthiophen-2-yl)azetidine-3-carboxamide] | 
53 | CC(=O)NCc1ccc(C(=O)N2CC3CC(C2)N3C(=O)/C=C/CN(C)C)s1 [XS190-130, (E)-N-((5-(6-(4-(dimethylamino)but-2-enoyl)-3,6-diazabicyclo[3.1.1]heptane-3-carbonyl)thiophen-2-yl)methyl)acetamide] | 
97 | CN(C)CC#CC(=O)N1CC(NC(=O)c2cc3ccccc3s2)C1 [XS224-155, A-(1-(4-(dimethylamino)but-2-ynoyl)azetidin-3-yl)benzo[b]thiophene-2-carboxamide] | 
80 | COCC#Cc1ccc(C(=O)N2CC3CC(C2)N3C(=O)/C=C/CN(C)C)s1 [XS197-93, (E)-4-(dimethylamino)-1-(3-(5-(3-methoxyprop-1-yn-1-yl)thiophene-2-carbonyl)-3,6-diazabicyclo[3.1.1]heptan-6-yl)but-2-en-1-one] | 
18 | CN(C)C/C=C/C(=O)N1CC2(CC(C(=O)Nc3cc4c(s3)CCCC4)C2)C1 [XS185-114, (E)-2-(4-(dimethylamino)but-2-enoyl)-N-(4,5,6,7-tetrahydrobenzo[b]thiophen-2-yl)-2-azaspiro[3.3]heptane-6-carboxamide] | 
